Test [1] concerns BRCA1 mRNA expression in MDA-MB-231 cells. Put plainly: qRT-PCR assay: BRCA1 mRNA expression in MDA-MB-231. Conditions: Homo sapiens, MDA-MB-231, Inhibition of BRCA1 mRNA expression in MDA-MB-231 cells; median; read-out: RTqPCR-MDA-MB-231, IC50, BRCA1 (median). It is filed as cell-based, human. In outline:
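Cells were seeded at 200,000 cells/well, left 24 h, then exposed continuously to test substances for 24 h. Total RNA (600 ng) was reverse-transcribed to cDNA and amplified by qPCR, and transcript levels were normalised to GAPDH housekeeping expression.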
(In general: In qPCR the cycle at which signal appears reflects the starting amount.)

For the next test, the target named is T1, CDK9/CycT1 (Homo sapiens, UniProt P50750).
T1 construct: Recombinant full-length His-tagged human CDK9 and CycT1; purchased Life Technologies PV4131; host or cells: insect cells
T1 sequence (P50750 whole entry): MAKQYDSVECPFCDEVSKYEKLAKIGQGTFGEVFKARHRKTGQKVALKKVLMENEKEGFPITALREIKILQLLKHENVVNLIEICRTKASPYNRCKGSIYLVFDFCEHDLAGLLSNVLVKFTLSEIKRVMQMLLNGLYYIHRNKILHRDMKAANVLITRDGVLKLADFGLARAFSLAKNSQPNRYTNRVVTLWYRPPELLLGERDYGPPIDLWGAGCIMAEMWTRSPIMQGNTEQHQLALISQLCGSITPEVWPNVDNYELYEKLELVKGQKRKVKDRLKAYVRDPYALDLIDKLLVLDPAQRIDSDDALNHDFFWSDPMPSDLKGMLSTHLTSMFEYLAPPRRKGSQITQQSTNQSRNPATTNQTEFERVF
T1 sequence (O60563 whole entry partner): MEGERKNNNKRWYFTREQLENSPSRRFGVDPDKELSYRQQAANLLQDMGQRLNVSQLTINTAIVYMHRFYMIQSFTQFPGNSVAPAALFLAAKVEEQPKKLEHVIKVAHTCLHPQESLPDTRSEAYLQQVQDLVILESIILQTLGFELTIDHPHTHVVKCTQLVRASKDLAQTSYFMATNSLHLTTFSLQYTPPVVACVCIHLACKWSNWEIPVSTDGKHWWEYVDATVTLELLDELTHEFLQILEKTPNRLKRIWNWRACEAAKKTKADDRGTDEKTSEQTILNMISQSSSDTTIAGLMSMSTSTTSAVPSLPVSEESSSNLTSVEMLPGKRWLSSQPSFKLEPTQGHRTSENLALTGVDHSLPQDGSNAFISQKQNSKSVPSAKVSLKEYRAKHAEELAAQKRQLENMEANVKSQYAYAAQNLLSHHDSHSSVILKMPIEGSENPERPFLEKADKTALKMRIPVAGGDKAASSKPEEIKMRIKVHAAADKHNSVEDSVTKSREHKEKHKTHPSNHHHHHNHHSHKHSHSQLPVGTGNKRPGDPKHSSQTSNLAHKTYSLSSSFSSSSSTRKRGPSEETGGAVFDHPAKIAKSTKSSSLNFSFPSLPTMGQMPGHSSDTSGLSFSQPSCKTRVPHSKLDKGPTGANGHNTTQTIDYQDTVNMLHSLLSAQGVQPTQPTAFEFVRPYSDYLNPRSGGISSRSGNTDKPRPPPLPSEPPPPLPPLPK
Put plainly: CDK9/CycT1 high ATP kinase assay (TR-FRET, 2 mM ATP). Format: biochemical. To be noted: 2 mM ATP (high ATP); median; read-out: CDK9/CyclinT1, 2 mM ATP (high ATP), IC50 (median). In outline: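 Full-length His-tagged human CDK9/CycT1 (insect cell, ~0.5 μg/mL) preincubated 15 min at 22 °C with compound in Tris pH 8.0, MgCl2, DTT buffer before reaction with biotinylated peptide substrate at high ATP (2 mM).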

The next test has as its target T2, CDK2/CycE (Homo sapiens, UniProt P24941).
T2 construct: purchased ProQinase GmbH (Freiburg, Germany); host or cells: insect cells (Sf9)
As to the kind of experiment: CDK2/CycE kinase assay (TR-FRET, 2 mM ATP). Format: biochemical. To be noted: 2 mM ATP (high ATP); median; read-out: CDK2/CyclinE, 2 mM ATP (high ATP), IC50 (median). In outline: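 GST-tagged human CDK2 and CycE from Sf9 cells, about 10 ng/ml, pre-incubated 15 min at 22 °C with compound in Tris/HCl pH 8.0 buffer. Reaction with 2 mM ATP and 0.75 µM biotinylated peptide for 25 min at 22 °C. Phospho-RB antibody TR-FRET (665/620 nm ratio) read after 1 h; data normalised to no-inhibitor and no-enzyme controls.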

Bounds are passed on as bounds.

Take `C[C@@H]1CN(c2nc(NCc3nc4cc(F)ccc4[nH]3)n3ncc(C4CC4)c3n2)C[C@H](C)N1` [Example 175, 8-cyclopropyl-2-[(3R,5S)-3,5-dimethylpiperazin-1-yl]-N-[(5-fluoro-1H-benzimidazol-2-yl)methyl]pyrazolo[1,5-a][1,3,5]triazin-4-amine]: the IC50 in test [1] was 1.63 nM; on CDK9/CycT1, greater than 20000 nM; at CDK2/CycE, greater than 20000 nM.

In the case of `CCNc1nc(NCc2nc3ccccc3[nH]2)n2ncc(Br)c2n1` [Example 227, N4-(1H-benzimidazol-2-ylmethyl)-8-bromo-N2-ethyl-pyrazolo[1,5-a][1,3,5]triazine-2,4-diamine], the IC50 was 15.3 nM in test [1], greater than 20000 nM on CDK9/CycT1 and 1870 nM at CDK2/CycE.

As to `CC(C)(O)CNc1nc(NCc2nc3ccccc3[nH]2)n2ncc(Br)c2n1` [Example 229, 1-[(4-{[(1H-benzimidazol-2-yl)methyl]amino}-8-bromopyrazolo[1,5-a][1,3,5]triazin-2-yl)amino]-2-methylpropan-2-ol], the IC50 in test [1] is 10.8 nM; on CDK9/CycT1, greater than 20000 nM; on CDK2/CycE, 1460 nM.

As to `FC(F)(F)c1cnn2c(NCc3nc4ccccc4[nH]3)nc(N3CCOCC3)nc12` [Example 241, N-[(1H-benzimidazol-2-yl)methyl]-2-(morpholin-4-yl)-8-(trifluoromethyl) pyrazolo[1,5-a][1,3,5]triazin-4-amine], the IC50 was 17.3 nM in test [1], greater than 20000 nM on CDK9/CycT1 and 12000 nM at CDK2/CycE.

Take `CN1CC2CN(c3nc(NCc4nc5ccccc5[nH]4)n4ncc(Br)c4n3)CC2C1` (stereo not drawn) [Example 240, N-(1H-benzimidazol-2-ylmethyl)-8-bromo-2-(2-methyl-1,3,3a,4,6,6a-hexahydropyrrolo[3,4-c]pyrrol-5-yl)pyrazolo[1,5-a][1,3,5]triazin-4-amine]: the IC50 is 7.69 nM in test [1], greater than 20000 nM at CDK9/CycT1 and 15500 nM on CDK2/CycE.

For `COc1cccc2[nH]c(CNc3nc(N4C[C@@H]5CCCN[C@@H]5C4)nc4c(C5CC5)cnn34)nc12` [Example 214, 8-cyclopropyl-N-[(4-methoxy-1H-benzimidazol-2-yl)methyl]-2-[(4aS,7aS)-octahydro-6H-pyrrolo[3,4-b]pyridin-6-yl]pyrazolo[1,5-a][1,3,5]triazin-4-amine], the IC50 in test [1] is 19.3 nM; on CDK9/CycT1 it was greater than 20000 nM; on CDK2/CycE, 17700 nM.

Take `OC1CCN(c2nc(NCc3nc4ccccc4[nH]3)n3ncc(Br)c3n2)CC1` [Example 17, 1-(4-{[(1H-benzimidazol-2-yl)methyl]amino}-8-bromopyrazolo[1,5-a][1,3,5]triazin-2-yl)piperidin-4-ol]: the figures for the IC50 (in test [1]; on CDK9/CycT1; at CDK2/CycE) were 12 nM, greater than 20000 nM and 2890 nM, respectively.

As to `CN(C)C1CCN(c2nc(NCc3nc4ccccc4[nH]3)n3ncc(Br)c3n2)CC1` [Example 201, N-[(1H-benzimidazol-2-yl)methyl]-8-bromo-2-[4-(dimethylamino)piperidin-1-yl]pyrazolo[1,5-a][1,3,5]triazin-4-amine], the results for the IC50 (in test [1]; on CDK9/CycT1; on CDK2/CycE) were 145 nM, greater than 20000 nM and greater than 20000 nM, respectively.

Take `Brc1cnn2c(NCc3nc4ccccc4[nH]3)nc(N3CCNC4(CC4)C3)nc12` [Example 176, N-[(1H-benzimidazol-2-yl)methyl]-8-bromo-2-(4,7-diazaspiro[2.5]octan-7-yl)pyrazolo[1,5-a][1,3,5]triazin-4-amine]: the IC50 was 4.68 nM in test [1], greater than 20000 nM on CDK9/CycT1 and 8600 nM at CDK2/CycE.

Take `CN1CC[C@@H]2CN(c3nc(NCc4nc5ccccc5[nH]4)n4ncc(Br)c4n3)C[C@@H]21` [Example 217, N-[(1H-benzimidazol-2-yl)methyl]-8-bromo-2-[(3aR,6aR)-1-methylhexahydropyrrolo[3,4-b]pyrrol-5 (1H)-yl]pyrazolo[1,5-a][1,3,5]triazin-4-amine]: the IC50 in test [1] is 33.5 nM; on CDK9/CycT1 it was greater than 20000 nM; at CDK2/CycE it was greater than 20000 nM.

Regarding `Clc1cnn2c(NCc3nc4ccccc4[nH]3)nc(N3CCOCC3)nc12` [Example 15, N-[(1H-benzimidazol-2-yl)methyl]-8-chloro-2-(morpholin-4-yl)pyrazolo[1,5-a][1,3,5]triazin-4-amine], the IC50 was 10 nM in test [1], greater than 20000 nM on CDK9/CycT1 and 6520 nM on CDK2/CycE.

Regarding `Fc1ccc2[nH]c(CNc3nc(N4CCOCC4)nc4c(C5CC5)cnn34)nc2c1` [Example 181, 8-cyclopropyl-N-[(5-fluoro-1H-benzimidazol-2-yl)methyl]-2-(morpholin-4-yl)pyrazolo[1,5-a][1,3,5]triazin-4-amine], the results for the IC50 (in test [1]; at CDK9/CycT1; at CDK2/CycE) were 3.51 nM, greater than 20000 nM and greater than 20000 nM, respectively.

Take `C[C@@H]1CN(c2nc(NCc3nc4c(F)cccc4[nH]3)n3ncc(C4CC4)c3n2)C[C@H](C)N1` [Example 186, 8-cyclopropyl-2-[(3R,5S)-3,5-dimethylpiperazin-1-yl]-N-[(4-fluoro-1H-benzimidazol-2-yl)methyl]pyrazolo[1,5-a][1,3,5]triazin-4-amine]: the IC50 is 1.49 nM in test [1], greater than 20000 nM on CDK9/CycT1 and greater than 20000 nM at CDK2/CycE.

Turning to `Cc1ccc2[nH]c(CNc3nc(N4CCN(C)CC4)nc4c(C5CC5)cnn34)nc2c1` [Example 210, 8-cyclopropyl-N-[(5-methyl-1H-benzimidazol-2-yl)methyl]-2-(4-methylpiperazin-1-yl)pyrazolo[1,5-a][1,3,5]triazin-4-amine], the IC50 in test [1] was 2.27 nM; at CDK9/CycT1, greater than 20000 nM; on CDK2/CycE, greater than 20000 nM.

Take `Fc1ccc2[nH]c(CNc3nc(N4C[C@@H]5CCCN[C@@H]5C4)nc4c(C5CC5)cnn34)nc2c1` [Example 180, 8-cyclopropyl-N-[(5-fluoro-1H-benzimidazol-2-yl)methyl]-2-[(4aS, 7aS)-octahydro-6H-pyrrolo[3,4-b]pyridin-6-yl]pyrazolo[1,5-a][1,3,5]triazin-4-amine]: the IC50 in test [1] is 12 nM; on CDK9/CycT1, greater than 20000 nM; on CDK2/CycE, greater than 20000 nM.

For `Fc1ccc2[nH]c(CNc3nc(N4C[C@@H]5C[C@H]4CO5)nc4c(C5CC5)cnn34)nc2c1F` [Example 173, 8-cyclopropyl-N-[(4,5-difluoro-1H-benzimidazol-2-yl)methyl]-2-[(1S,4S)-2-oxa-5-azabicyclo[2.2.1]heptan-5-yl]pyrazolo[1,5-a][1,3,5]triazin-4-amine], the IC50 is 4.58 nM in test [1], greater than 20000 nM at CDK9/CycT1 and greater than 20000 nM on CDK2/CycE.

With `CO[C@@H]1CCN(c2nc(NCc3nc4ccccc4[nH]3)n3ncc(Br)c3n2)C1` [Example 223, N-[(1H-benzimidazol-2-yl)methyl]-8-bromo-2-[(3R)-3-methoxypyrrolidin-1-yl]pyrazolo[1,5-a][1,3,5]triazin-4-amine], the IC50 in test [1] is 86.5 nM; at CDK9/CycT1, greater than 20000 nM; at CDK2/CycE, 14400 nM.

For `Fc1ccc2[nH]c(CNc3nc(N4C[C@@H]5C[C@H]4CO5)nc4c(C5CC5)cnn34)nc2c1` [Example 185, 8-cyclopropyl-N-[(5-fluoro-1H-benzimidazol-2-yl)methyl]-2-[(1S,4S)-2-oxa-5-azabicyclo[2.2.1]heptan-5-yl]pyrazolo[1,5-a][1,3,5]triazin-4-amine], the values for the IC50 (in test [1]; at CDK9/CycT1; at CDK2/CycE) were 26.6 nM, greater than 20000 nM and greater than 20000 nM, respectively.

`Cc1ccc2[nH]c(CNc3nc(N4CCOCC4)nc4c(C5CC5)cnn34)nc2c1` [Example 193, 8-cyclopropyl-N-[(5-methyl-1H-benzimidazol-2-yl)methyl]-2-(morpholin-4-yl)pyrazolo[1,5-a][1,3,5]triazin-4-amine]: the IC50 was 3.65 nM in test [1], greater than 20000 nM on CDK9/CycT1 and 10800 nM on CDK2/CycE.

`CN1CC[C@H]2CN(c3nc(NCc4nc5ccccc5[nH]4)n4ncc(Br)c4n3)C[C@H]21` [Example 179, N-[(1H-benzimidazol-2-yl)methyl]-8-bromo-2-[(3aS,6aS)-1-methylhexahydropyrrolo[3,4-b]pyrrol-5 (1H)-yl]pyrazolo[1,5-a][1,3,5]triazin-4-amine]: the IC50 in test [1] is 21.7 nM; on CDK9/CycT1 it was greater than 20000 nM; on CDK2/CycE, greater than 20000 nM.

On to `Brc1cnn2c(NCc3nc4ccccc4[nH]3)nc(N3C[C@H]4CCCN[C@H]4C3)nc12` [Example 199, N-[(1H-benzimidazol-2-yl)methyl]-8-bromo-2-[(4aR, 7aR)-octahydro-6H-pyrrolo[3,4-b]pyridin-6-yl]pyrazolo[1,5-a][1,3,5]triazin-4-amine], for which the IC50 was 47.9 nM in test [1], greater than 20000 nM at CDK9/CycT1 and 5170 nM on CDK2/CycE.

Consider `Brc1cnn2c(NCc3nc4ccccc4[nH]3)nc(N3CC4CCC3CN4)nc12` (stereo not drawn) [Example 220, N-(1H-benzimidazol-2-ylmethyl)-8-bromo-2-(2,5-diazabicyclo[2.2.2]octan-2-yl)pyrazolo[1,5-a][1,3,5]triazin-4-amine], for which the IC50 in test [1] was 4.18 nM; on CDK9/CycT1 it was greater than 20000 nM; on CDK2/CycE it was 908 nM.

For the origin of these results see patent publication US20230117034A1, “PYRAZOLOTRIAZINES” (Bayer Aktiengesellschaft, priority 2019, published 2023).
